Experimental data taken from publication PMC8398451, “Molecular Engineering of Curcumin, an Active Constituent of Curcuma longa L. (Turmeric) of the Family Zingiberaceae with Improved Antiproliferative Activity” (Plants, 2021).
pIC50: −log10 of the molar value. Like-named read-outs stand apart in the source and are kept apart here.

What was measured:
RXF 393 = assay: NCI antiproliferative SRB assay, Renal Cancer panel; format: cell-based, Human
OVCAR-5 = assay: NCI antiproliferative SRB assay, Ovarian Cancer panel; format: cell-based, Human
[1] = system: CNS Cancer cell line panel; assay: NCI antiproliferative assay, panel summary; format: cell-based, Human
CAKI-1 = assay: NCI antiproliferative SRB assay, Renal Cancer panel; format: cell-based, Human
SW-620 = assay: NCI antiproliferative SRB assay, Colon Cancer panel; format: cell-based, Human
NCI-H226 = assay: NCI antiproliferative SRB assay, Non-Small Cell Lung Cancer panel; format: cell-based, Human
MDA-MB-435 = assay: NCI antiproliferative SRB assay, Melanoma panel; format: cell-based
K-562 = assay: NCI antiproliferative SRB assay, Leukemia panel; format: cell-based, Human
HOP-92 = assay: NCI antiproliferative SRB assay, Non-Small Cell Lung Cancer panel; format: cell-based
[2] = system: Ovarian Cancer cell line panel; assay: NCI antiproliferative assay, panel summary; format: cell-based, Human
RPMI-8226 = assay: NCI antiproliferative SRB assay, Leukemia panel; format: cell-based, Human
Melanoma cell line panel = assay: NCI antiproliferative assay, panel summary; format: cell-based, Human
NCI-H322M = assay: NCI antiproliferative SRB assay, Non-Small Cell Lung Cancer panel; format: cell-based, Human
HOP-62 = assay: as above; format: cell-based, Human
PC-3 = assay: NCI antiproliferative SRB assay, Prostate Cancer panel; format: cell-based, Human
786–0 = assay: NCI antiproliferative SRB assay, Renal Cancer panel; format: cell-based, Human
M14 = assay: NCI antiproliferative SRB assay, Melanoma panel; format: cell-based, Human
SF-295 = assay: NCI antiproliferative SRB assay, CNS Cancer panel; format: cell-based, Human
Leukemia cell line panel = assay: NCI antiproliferative assay, panel summary; format: cell-based, Human; details: for GI50: Homo sapiens
[3] = system: Colon Cancer cell line panel; assay: NCI antiproliferative assay, panel summary; format: cell-based, Human
NCI-H23 = assay: NCI antiproliferative SRB assay, Non-Small Cell Lung Cancer panel; format: cell-based, Human
EKVX = assay: as above; format: cell-based, Human
OVCAR-8 = assay: NCI antiproliferative SRB assay, Ovarian Cancer panel; format: cell-based, Human
EGFR = target: T1, EGFR (Homo sapiens, UniProt P00533); assay: Spectrophotometric assay for EGFR tyrosine kinase inhibition in A431 cells; format: cell-based; details: absorbance at 540 nm
T1 construct: tested for anti-EGFR activity in human A431 cells, which express high levels of EGFR protein; endogenous in cells; host or cells: human A431 cells

SF-539 = assay: NCI antiproliferative SRB assay, CNS Cancer panel; format: cell-based, Human
SR = assay: NCI antiproliferative SRB assay, Leukemia panel; format: cell-based, Human
[4] = Homo sapiens, 5-dose 0.01-100 µM
[5] = Homo sapiens, 5-dose 0.01-100 µM, read-out: LC50 (the source's name)
[6] = Homo sapiens, 5-dose assay, read-out: Sub Panel MID b (mean GI50 of panel)

T1 sequence (P00533 25-1210): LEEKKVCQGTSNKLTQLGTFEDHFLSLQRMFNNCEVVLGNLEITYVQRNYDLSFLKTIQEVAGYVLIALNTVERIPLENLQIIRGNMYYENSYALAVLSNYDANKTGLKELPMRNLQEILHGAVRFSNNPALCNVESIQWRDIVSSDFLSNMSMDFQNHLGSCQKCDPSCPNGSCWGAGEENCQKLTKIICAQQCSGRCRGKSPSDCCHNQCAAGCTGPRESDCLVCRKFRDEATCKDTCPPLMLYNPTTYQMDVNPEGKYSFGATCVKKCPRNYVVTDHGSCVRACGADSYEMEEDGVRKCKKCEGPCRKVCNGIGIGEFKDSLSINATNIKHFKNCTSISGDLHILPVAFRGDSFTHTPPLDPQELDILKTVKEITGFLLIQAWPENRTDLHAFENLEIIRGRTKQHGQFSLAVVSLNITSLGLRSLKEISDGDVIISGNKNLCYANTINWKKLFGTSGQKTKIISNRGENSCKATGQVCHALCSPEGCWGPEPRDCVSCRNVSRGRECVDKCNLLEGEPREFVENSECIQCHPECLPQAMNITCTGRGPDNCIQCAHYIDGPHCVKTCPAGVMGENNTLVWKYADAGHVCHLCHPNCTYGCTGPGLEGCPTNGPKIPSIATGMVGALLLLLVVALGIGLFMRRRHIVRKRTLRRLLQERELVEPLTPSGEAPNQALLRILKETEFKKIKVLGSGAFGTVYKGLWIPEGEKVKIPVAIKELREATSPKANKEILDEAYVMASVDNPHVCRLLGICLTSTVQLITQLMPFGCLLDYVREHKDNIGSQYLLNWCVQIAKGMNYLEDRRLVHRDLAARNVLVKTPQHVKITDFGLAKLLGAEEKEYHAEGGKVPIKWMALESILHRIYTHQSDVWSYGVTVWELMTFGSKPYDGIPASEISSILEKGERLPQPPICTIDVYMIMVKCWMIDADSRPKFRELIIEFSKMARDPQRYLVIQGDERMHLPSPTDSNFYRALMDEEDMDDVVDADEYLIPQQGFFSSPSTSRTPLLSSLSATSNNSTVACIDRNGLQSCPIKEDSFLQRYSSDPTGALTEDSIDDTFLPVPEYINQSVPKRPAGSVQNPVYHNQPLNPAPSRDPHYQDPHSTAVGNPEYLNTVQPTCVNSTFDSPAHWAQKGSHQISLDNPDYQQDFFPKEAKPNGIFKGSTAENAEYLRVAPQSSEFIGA

COc1cc(/C=C/c2cc(/C=C/c3ccc(O)c(OC)c3)n(C(=O)Nc3ccc(C(F)(F)F)cc3)n2)ccc1O [3c]
TGI (RXF 393; 5-dose 0.01-100 µM): 3.73 µM
GI50 (RXF 393; [4]): 1.98 µM
%GI (RXF 393; one dose 10 µM): 77.34%
GP (growth percent) (RXF 393; one dose 10 µM): 22.66
TGI (OVCAR-5; 5-dose 0.01-100 µM): 4.97 µM
GI50 (OVCAR-5; [4]): 2.16 µM
CC50 (OVCAR-5; [5]): 15.2 µM
GP (growth percent) (OVCAR-5; one dose 10 µM): 115.18
Mean % GI ([1]; 10 µM): 53.38%
Selectivity Ratio (MID a:MID b) ([1]; 5-dose assay): 1.02
GI50 [1, 6]: 2.78 µM
TGI (CAKI-1; 5-dose 0.01-100 µM): 12.7 µM
GI50 (CAKI-1; [4]): 3.02 µM
CC50 (CAKI-1; [5]): 44.1 µM
%GI (CAKI-1; one dose 10 µM): 45.01%
GP (growth percent) (CAKI-1; one dose 10 µM): 54.99
TGI (SW-620; 5-dose 0.01-100 µM): 5.90 µM
GI50 (SW-620; [4]): 2.56 µM
CC50 (SW-620; [5]): 33.6 µM
%GI (SW-620; one dose 10 µM): 82.00%
GP (growth percent) (SW-620; one dose 10 µM): 18.00
TGI (NCI-H226; 5-dose 0.01-100 µM): 27.6 µM
GI50 (NCI-H226; [4]): 7.29 µM
CC50 (NCI-H226; [5]): 91.7 µM
%GI (NCI-H226; one dose 10 µM): 17.33%
GP (growth percent) (NCI-H226; one dose 10 µM): 82.67
TGI (MDA-MB-435; 5-dose 0.01-100 µM): 7.06 µM
GI50 (MDA-MB-435; Homo sapiens): 2.35 µM
CC50 (MDA-MB-435; [5]): 33.4 µM
%GI (MDA-MB-435; one dose 10 µM): 72.15%
GP (growth percent) (MDA-MB-435; one dose 10 µM): 27.85
TGI (K-562; 5-dose 0.01-100 µM): >100 µM
GI50 (K-562; Homo sapiens, K562, 5-dose 0.01-100 µM): 2.53 µM
CC50 (K-562; Homo sapiens, K562, 5-dose 0.01-100 µM, read-out: LC50 (the source's name)): > 100 µM
%GI (K-562; one dose 10 µM): 90.55%
GP (growth percent) (K-562; one dose 10 µM): 9.45
TGI (HOP-92; 5-dose 0.01-100 µM): 6.79 µM
GI50 (HOP-92; Homo sapiens): 2.35 µM
CC50 (HOP-92; [5]): > 100 µM
Mean % GI ([2]; 10 µM): 47.62%
Selectivity Ratio (MID a:MID b) ([2]; 5-dose assay): 0.88
GI50 [2, 6]: 3.24 µM
TGI (RPMI-8226; 5-dose 0.01-100 µM): 6.59 µM
GI50 (RPMI-8226; [4]): 2.09 µM
CC50 (RPMI-8226; [5]): > 100 µM
%GI (RPMI-8226; one dose 10 µM): 100.21%
GP (growth percent) (RPMI-8226; one dose 10 µM): −0.21
Mean % GI (Melanoma cell line panel; 10 µM): 60.81%
GI50 (Melanoma cell line panel; [6]): 2.51 µM
TGI (NCI-H322M; 5-dose 0.01-100 µM): 12.9 µM
GI50 (NCI-H322M; [4]): 3.25 µM
CC50 (NCI-H322M; [5]): 49.6 µM
%GI (NCI-H322M; one dose 10 µM): 17.30%
GP (growth percent) (NCI-H322M; one dose 10 µM): 82.70
TGI (HOP-62; 5-dose 0.01-100 µM): 16.2 µM
GI50 (HOP-62; [4]): 3.6 µM
CC50 (HOP-62; [5]): > 100 µM
%GI (HOP-62; one dose 10 µM): 37.13%
GP (growth percent) (HOP-62; one dose 10 µM): 62.87
TGI (PC-3; 5-dose 0.01-100 µM): 13.5 µM
GI50 (PC-3; [4]): 3.21 µM
CC50 (PC-3; [5]): > 100 µM
%GI (PC-3; one dose 10 µM): 61.97%
GP (growth percent) (PC-3; one dose 10 µM): 38.03
TGI (786–0; 5-dose 0.01-100 µM): 7.52 µM
GI50 (786–0; [4]): 2.42 µM
CC50 (786–0; [5]): > 100 µM
%GI (786–0; one dose 10 µM): 79.93%
GP (growth percent) (786–0; one dose 10 µM): 20.07
TGI (M14; 5-dose 0.01-100 µM): 4.08 µM
GI50 (M14; [4]): 1.94 µM
CC50 (M14; [5]): 8.58 µM
%GI (M14; one dose 10 µM): 70.52%
GP (growth percent) (M14; one dose 10 µM): 29.48
TGI (SF-295; 5-dose 0.01-100 µM): 9.85 µM
GI50 (SF-295; [4]): 2.89 µM
CC50 (SF-295; [5]): 76.5 µM
%GI (SF-295; one dose 10 µM): 16.58%
GP (growth percent) (SF-295; one dose 10 µM): 83.42
Mean % GI (Leukemia cell line panel; 10 µM): 91.31%
Selectivity Ratio (MID a:MID b) (Leukemia cell line panel; 5-dose assay): 1.27
GI50 (Leukemia cell line panel; 5-dose assay, read-out: GI50 values, range over the leukemia panel): 1.48 to 2.73 µM
GI50 (Leukemia cell line panel; 5-dose assay, read-out: Sub Panel MID b (mean GI50 of panel)): 2.24 µM
Mean % GI ([3]; 10 µM): 73.05%
Selectivity Ratio (MID a:MID b) ([3]; 5-dose assay): 1.31
GI50 [3, 6]: 2.17 µM
TGI (NCI-H23; 5-dose 0.01-100 µM): 6.48 µM
GI50 (NCI-H23; [4]): 2.13 µM
CC50 (NCI-H23; [5]): > 100 µM
%GI (NCI-H23; one dose 10 µM): 48.71%
GP (growth percent) (NCI-H23; one dose 10 µM): 51.29
TGI (EKVX; 5-dose 0.01-100 µM): 38.4 µM
GI50 (EKVX; [4]): 3.22 µM
CC50 (EKVX; [5]): > 100 µM
%GI (EKVX; one dose 10 µM): 38.75%
GP (growth percent) (EKVX; one dose 10 µM): 61.25
TGI (OVCAR-8; 5-dose 0.01-100 µM): >100 µM
GI50 (OVCAR-8; [4]): 3.33 µM
CC50 (OVCAR-8; [5]): > 100 µM
%GI (OVCAR-8; one dose 10 µM): 99.57%
GP (growth percent) (OVCAR-8; one dose 10 µM): 0.43
pIC50 (EGFR): 5.38
TGI (SF-539; 5-dose 0.01-100 µM): 7.45 µM
GI50 (SF-539; [4]): 2.37 µM
CC50 (SF-539; [5]): 56 µM
%GI (SF-539; one dose 10 µM): 70.99%
GP (growth percent) (SF-539; one dose 10 µM): 29.01
TGI (SR; 5-dose 0.01-100 µM): >100 µM
GI50 (SR; [4]): 1.48 µM
CC50 (SR; [5]): > 100 µM
%GI (SR; one dose 10 µM): 86.79%
GP (growth percent) (SR; one dose 10 µM): 13.21
